The source of these data is patent US20100048544A1, “PYRROLO (3, 2, 1-IJ) QUINOLINE-4-ONE-DERIVATIVES FOR TREATING TUBERCULOSIS” (priority 2007, published 2010).

Some results are limits rather than exact numbers.

In general, MIC refers to the lowest concentration found to suppress growth.

The first assay deals with Mycobacterium tuberculosis H37Rv. The assay is described as follows: Mycobacterium tuberculosis H37Rv inhibition assay (MIC, microtiter plate, alamar blue). The conditions noted are these: ATCC 25618 / H37Rv, H37Rv strain (ATCC25618), Middlebrook 7H9, 37° C. six days, alamar blue fluorescence after 48 hours, read-out: MIC value. The format is cell-based.
With `O=c1ccc2ccc(F)c3c2n1CC3CN1CCC(NCc2cc3c(cn2)OCCO3)CC1` (centres unmarked) [Example 2, 1-({4-[(2,3-Dihydro[1,4]dioxino[2,3-c]pyridin-7-ylmethyl)amino]-1-piperidinyl}methyl)-9-fluoro-1,2-dihydro-4H-pyrrolo[3,2,1-ij]quinolin-4-one], the MIC is not above 4 µg/mL.
The same measure, in the same setting: to `O=c1ccc2ccc(F)c3c2n1CC3(O)CN1CCC(NCc2cc3c(nn2)OCCS3)CC1` (centres unmarked) [Example 29, 1-({4-[(6,7-Dihydro[1,4]oxathiino[2,3-c]pyridazin-3-ylmethyl)amino]-1-piperidinyl}methyl)-9-fluoro-1-hydroxy-1,2-dihydro-4H-pyrrolo[3,2,1-ij]quinolin-4-one] belongs not above 4 µg/mL.
Same read-out and setting: to `O=C1COc2cc(Cl)c(CNC[C@H]3CCN(CC4Cn5c(=O)ccc6ccc(F)c4c65)C3)nc2N1` (stereo partly drawn) [Example 33, 1-{[(3R)-3-({[(7-Chloro-3-oxo-3,4-dihydro-2H-pyrido [3,2-b][1,4]oxazin-6-yl)methyl]amino}methyl)-1-pyrrolidinyl]methyl}-9-fluoro-1,2-dihydro-4H-pyrrolo[3,2,1-ij]quinolin-4-one] belongs not above 4 µg/mL; to `O=C1COc2ccc(CNC[C@H]3CCN(CC4Cn5c(=O)ccc6ccc(F)c4c65)C3)nc2N1` (stereo partly drawn) [Example 35, 9-Fluoro-1-{[(3R)-3-({[(3-oxo-3,4-dihydro-2H-pyrido[3,2-b][1,4]oxazin-6-yl)methyl]amino}methyl)-1-pyrrolidinyl]methyl}-1,2-dihydro-4H-pyrrolo[3,2,1-ij]quinolin-4-one], not above 4 µg/mL; to `O=c1ccc2ccc(F)c3c2n1CC3CN1CCC(NCc2ccc3c(c2)C(O)CCC3)CC1` (centres unmarked) [Example 75, 9-fluoro-1-[(4-{[(8-hydroxy-5,6,7,8-tetrahydro-2-naphthalenyl)methyl]amino}-1-piperidinyl)methyl]-1,2-dihydro-4H-pyrrolo[3,2,1-ij]quinolin-4-one], not above 4 µg/mL.

Still in this assay, the particulars now being: ATCC 25618 / H37Rv, read-out: MIC value, H37Rv strain (ATCC25618), Middlebrook 7H9, 37° C. six days, alamar blue fluorescence after 48 hours.
Turning to `O=c1ccc2ccc(F)c3c2n1CC3CN1CC[C@H](NCc2cc3c(cn2)OCC3)[C@H](O)C1` (stereo partly drawn) [Example 8, 1-({(3R,4S)-4-[(2,3-Dihydrofuro[2,3-c]pyridin-5-ylmethyl)amino]-3-hydroxy-1-piperidinyl}methyl)-9-fluoro-1,2-dihydro-4H-pyrrolo [3,2,1-ij]quinolin-4-one], the MIC was not above 4 µg/mL.
The same measure, in the same setting: to `O=c1ccc2ccc(F)c3c2n1CC3CN1CCC(NCc2cnc3c(c2)OCCO3)CC1` (centres unmarked) [Example 22, 1-({4-[(2,3-dihydro[1,4]dioxino[2,3-b]pyridin-7-ylmethyl)amino]-1-piperidinyl}methyl)-9-fluoro-1,2-dihydro-4H-pyrrolo[3,2,1-ij]quinolin-4-one] belongs not above 4 µg/mL; to `O=c1ccc2ccc(F)c3c2n1C[C@H]3CN1CCC(NCc2ccc3c(c2F)OCCO3)CC1` [Example 80, (1R)-9-fluoro-1-[(4-{[(5-fluoro-2,3-dihydro-1,4-benzodioxin-6-yl)methyl]amino}-1-piperidinyl)methyl]-1,2-dihydro-4H-pyrrolo[3,2,1-ij]quinolin-4-one], not above 4 µg/mL.
